Data from ChEMBL document CHEMBL5346899, “PKM2/PDK1 dual-targeted shikonin derivatives restore the sensitivity of EGFR-mutated NSCLC cells to gefitinib by remodeling glucose metabolism” (Eur J Med Chem, 2023).
The source made the active and inactive calls. No cut-off for these calls is given here.

Tests used:
[1] = tested on: A549; assay: cells; format: functional, cell-based; conditions: Homo sapiens, A549, 24 h
Description: Antiproliferative activity against human A549 cells assessed as inhibition of cell growth incubated for 24 hrs by CCK-8 assay

[2] = tested on: NCI-H1975; assay: cells; format: functional, cell-based; conditions: Homo sapiens, NCI-H1975, 24 h
Description: Antiproliferative activity against human NCI-H1975 cells assessed as inhibition of cell growth incubated for 24 hrs by CCK-8 assay

[3] = tested on: NCI-H1299; assay: cells; format: functional, cell-based; conditions: Homo sapiens, NCI-H1299, 24 h
Description: Antiproliferative activity against human NCI-H1299 cells assessed as inhibition of cell growth incubated for 24 hrs by CCK-8 assay

[4] = tested on: HCC827; assay: cells; format: functional, cell-based; conditions: Homo sapiens, HCC827, 24 h
Description: Antiproliferative activity against human HCC827 cells assessed as inhibition of cell growth incubated for 24 hrs by CCK-8 assay

[5] = in vitro; conditions: human, HEK293T cells
Description: Cytotoxicity against HEK293T cells assessed as inhibition of cell growth incubated for 24 hrs by CCK-8 assay

[6] = tested on: NCI-H1299; assay: Synergistic antiproliferative activity against human NCI-H1299 cells assessed as cell growth inhibition at 500 micromol/L incubated for 24 hrs in presence of ML265 by CCK-8 analysis; format: functional, cell-based; conditions: dose 500.0 µmol/L
[7] = tested on: NCI-H1299; assay: Induction of apoptosis in human NCI-H1299 cells assessed as live cells at 500 micromol/L incubated for 24 hrs by Annexin V-FITC/PI staining based analysis (reference value: 96.6%); format: functional; conditions: dose 500 µmol/L, at 500 µM
[8] = tested on: NCI-H1299; assay: Induction of apoptosis in human NCI-H1299 cells assessed as early apoptotic cells at 500 micromol/L incubated for 24 hrs by Annexin V-FITC/PI staining based analysis (reference value: 0.772%); format: functional; conditions: dose 500 µmol/L, at 500 µM
[9] = tested on: NCI-H1299; assay: Induction of apoptosis in human NCI-H1299 cells assessed as late apoptotic cells at 500 micromol/L incubated for 24 hrs by Annexin V-FITC/PI staining based analysis (reference value: 2.63%); format: functional; conditions: dose 500 µmol/L, at 500 µM
[10] = tested on: NCI-H1299; assay: Induction of apoptosis in human NCI-H1299 cells assessed as dead cells at 500 micromol/L incubated for 24 hrs by Annexin V-FITC/PI staining based analysis (reference value: 0.021%); format: functional; conditions: dose 500 µmol/L, at 500 µM
[11] = tested on: NCI-H1299; assay: Induction of apoptosis in human NCI-H1299 cells assessed as live cells at 500 micromol/L incubated for 24 hrs in presence of ML265 by Annexin V-FITC/PI staining based analysis (reference value: 96.6%); format: functional; conditions: dose 500 µmol/L, at 500 µM
[12] = tested on: NCI-H1299; assay: Induction of apoptosis in human NCI-H1299 cells assessed as early apoptotic cells at 500 micromol/L incubated for 24 hrs in presence of ML265 by Annexin V-FITC/PI staining based analysis (reference value: 0.772%); format: functional; conditions: dose 500 µmol/L, at 500 µM
[13] = tested on: NCI-H1299; assay: Induction of apoptosis in human NCI-H1299 cells assessed as late apoptotic cells at 500 micromol/L incubated for 24 hrs in presence of ML265 by Annexin V-FITC/PI staining based analysis (reference value: 2.63%); format: functional; conditions: dose 500 µmol/L, at 500 µM
[14] = tested on: NCI-H1299; assay: Induction of apoptosis in human NCI-H1299 cells assessed as dead cells at 500 micromol/L incubated for 24 hrs in presence of ML265 by Annexin V-FITC/PI staining based analysis (reference value: 0.021%); format: functional; conditions: dose 500 µmol/L, at 500 µM
[15] = tested on: NCI-H1299; assay: Inhibition of glycolysis in human NCI-H1299 cells assessed as reduction in glucose consumption incubated for 24 hrs in presence of ML265 by colorimetric assay; format: functional, cell-based
[16] = tested on: NCI-H1299; assay: Inhibition of glycolysis in human NCI-H1299 cells assessed as reduction in lactate production incubated for 1 hrs in presence of ML265 by colorimetric assay; format: functional, cell-based
[17] = tested on: NCI-H1299; assay: Synergistic inhibition of NADPH production in human NCI-H1299 cells incubated for 2 hrs in presence of ML265 by NADP+/NADPH assay; format: functional, cell-based
[18] = tested on: NCI-H1299; assay: Synergistic induction of oxidative phosphorylation in human NCI-H1299 cells assessed as increase in ATP production in presence of ML265 by luminescence based assay; format: functional, cell-based
[19] = tested on: NCI-H1299; assay: Antitumor activity against human NCI-H1299 cells xenografted in mouse assessed as pathological damage to tumor tissue administered in presence of ML265; format: functional
[20] = tested on: NCI-H1299; assay: Induction of apoptosis in human NCI-H1299 cells assessed as early apoptotic cells at 2 micromol/L incubated for 24 hrs by Annexin V-FITC/PI staining based analysis (reference value: 2.43%); format: functional; conditions: dose 2 µmol/L, at 2 µM
[21] = tested on: NCI-H1299; assay: Induction of apoptosis in human NCI-H1299 cells assessed as late apoptotic cells at 2 micromol/L incubated for 24 hrs by Annexin V-FITC/PI staining based analysis (reference value: 14.9%); format: functional; conditions: dose 2 µmol/L, at 2 µM
[22] = tested on: A549; assay: Induction of apoptosis in human A549 cells assessed as early apoptotic cells at 2 micromol/L incubated for 24 hrs by Annexin V-FITC/PI staining based analysis (reference value: […]%); format: functional; conditions: dose 2 µmol/L
[23] = tested on: A549; assay: Induction of apoptosis in human A549 cells assessed as late apoptotic cells at 2 micromol/L incubated for 24 hrs by Annexin V-FITC/PI staining based analysis (reference value: 3.18%); format: functional; conditions: dose 2 µmol/L, at 2 µM
[24] = tested on: NCI-H1975; assay: Induction of apoptosis in human NCI-H1975 cells assessed as early apoptotic cells at 2 micromol/L incubated for 24 hrs by Annexin V-FITC/PI staining based analysis (reference value: 1.88%); format: functional; conditions: dose 2 µmol/L, at 2 µM
[25] = tested on: NCI-H1975; assay: Induction of apoptosis in human NCI-H1975 cells assessed as late apoptotic cells at 2 micromol/L incubated for 24 hrs by Annexin V-FITC/PI staining based analysis (reference value: 2.66%); format: functional; conditions: dose 2 µmol/L, at 2 µM
[26] = tested on: HCC827; assay: Induction of apoptosis in human HCC827 cells assessed as early apoptotic cells at 2 micromol/L incubated for 24 hrs by Annexin V-FITC/PI staining based analysis (reference value: 9.14%); format: functional; conditions: dose 2 µmol/L, at 2 µM
[27] = tested on: HCC827; assay: Induction of apoptosis in human HCC827 cells assessed as late apoptotic cells at 2 micromol/L incubated for 24 hrs by Annexin V-FITC/PI staining based analysis (reference value: 8.42%); format: functional; conditions: dose 2 µmol/L, at 2 µM
[28] = tested on: NCI-H1975; assay: Induction of mitochondrial transmembrane potential dissipation in human NCI-H1975 cells assessed as cells with high mitochondrial transmembrane potential at 1 micromol/L by FL-1/FL-2 channel based fluorescence analysis (reference value: 97.4%); format: functional; conditions: dose 1 µmol/L; at 1 µM
[29] = tested on: NCI-H1975; assay: Induction of mitochondrial transmembrane potential dissipation in human NCI-H1975 cells assessed as cells with low mitochondrial transmembrane potential at 1 micromol/L by FL-1/FL-2 channel based fluorescence analysis (reference value: 2.13%); format: functional; conditions: dose 1 µmol/L; at 1 µM
[30] = tested on: NCI-H1975; assay: Induction of apoptosis in human NCI-H1975 cells assessed as live cells at 10 micromol/L incubated for 24 hrs by Annexin V-FITC/PI staining based analysis (reference value: 88.7%); format: functional; conditions: dose 10 µmol/L, at 10 µM
[31] = tested on: NCI-H1975; assay: Induction of apoptosis in human NCI-H1975 cells assessed as early apoptotic cells at 10 micromol/L incubated for 24 hrs by Annexin V-FITC/PI staining based analysis (reference value: 2.55%); format: functional; conditions: dose 10 µmol/L, at 10 µM
[32] = tested on: NCI-H1975; assay: Induction of apoptosis in human NCI-H1975 cells assessed as dead cells at 10 micromol/L incubated for 24 hrs by Annexin V-FITC/PI staining based analysis (reference value: 0.103%); format: functional; conditions: dose 10 µmol/L, at 10 µM

IC50 [1] [µM]	IC50 [2] [µM]	IC50 [3] [µM]	IC50 [4] [µM]	IC50 at 24 h [5] [µM]	SMILES	further results
4.21	4.08	4.93	4.21	77.5	COC(=O)[C@H](CS[C@H](CC=C(C)C)C1=CC(=O)c2c(O)ccc(O)c2C1=O)NC(=O)CCCC[C@@H]1CCSC(c2ccc(C(C)C)cc2)S1 (some centres not stated)	–
8.6	11.5	6.33	6.09	95.5	COC(=O)[C@H](CS[C@H](CC=C(C)C)C1=CC(=O)c2c(O)ccc(O)c2C1=O)NC(=O)CCCC[C@@H]1CCSC(c2ccccc2)S1 (some centres not stated)	–
4.59	3.66	3.53	4.34	83.8	COC(=O)[C@H](CS[C@H](CC=C(C)C)C1=CC(=O)c2c(O)ccc(O)c2C1=O)NC(=O)CCCC[C@@H]1CCSC(c2cccc(C(F)(F)F)c2)S1 (some centres not stated)	–
12.4	4.12	10.5	10.4	80.4	COC(=O)[C@H](CS[C@H](CC=C(C)C)C1=CC(=O)c2c(O)ccc(O)c2C1=O)NC(=O)CCCC[C@@H]1CCSC(c2ccc(C)cc2)S1 (some centres not stated)	–
15.2	7.4	3.53	11.8	96.7	COC(=O)[C@H](CS[C@H](CC=C(C)C)C1=CC(=O)c2c(O)ccc(O)c2C1=O)NC(=O)CCCC[C@@H]1CCSC(c2cccc(Br)c2)S1 (some centres not stated)	–
21.8	17	5.34	25.9	94.2	COC(=O)[C@H](CS[C@H](CC=C(C)C)C1=CC(=O)c2c(O)ccc(O)c2C1=O)NC(=O)CCCC[C@@H]1CCSC(c2ccc([N+](=O)[O-])cc2)S1 (some centres not stated)	–
16.1	1.7	4.5	16.6	98.2	COC(=O)[C@H](CS[C@H](CC=C(C)C)C1=CC(=O)c2c(O)ccc(O)c2C1=O)NC(=O)CCCC[C@@H]1CCSC(c2cccc(Cl)c2Cl)S1 (some centres not stated)	–
18.1	4.68	3.27	13.2	88.8	COC(=O)[C@H](CS[C@H](CC=C(C)C)C1=CC(=O)c2c(O)ccc(O)c2C1=O)NC(=O)CCCC[C@@H]1CCSC(c2ccc(Br)cc2)S1 (some centres not stated)	–
6.49	2.32	4.58	7.15	84.9	COC(=O)[C@H](CS[C@H](CC=C(C)C)C1=CC(=O)c2c(O)ccc(O)c2C1=O)NC(=O)CCCC[C@@H]1CCSC(c2ccc(C(F)(F)F)cc2)S1 (some centres not stated)	–
–	–	–	–	–	CN(C)C(=O)c1ccc(S(=O)(=O)c2ccc(NC(=O)[C@@](C)(O)C(F)(F)F)c(Cl)c2)cc1	Activity [6]: Active; Activity [7]: 59%; Activity [8]: 28.9%; Activity [9]: 12.1%; Activity [10]: 0.01%; Activity [11]: 20.6%; Activity [12]: 7.63%; Activity [13]: 71.7%; Activity [14]: 0%; inhibition [15]: Active; inhibition [16]: Active; inhibition [17]: Active; Activity [18]: Active; Activity [19]: Active
11.5	8.26	8.26	10.9	86	COC(=O)[C@H](CS[C@H](CC=C(C)C)C1=CC(=O)c2c(O)ccc(O)c2C1=O)NC(=O)CCCC[C@@H]1CCSC(c2ccc(Cl)cc2)S1 (some centres not stated)	–
4.47	4.56	3.95	9.21	2.63	CC(C)=CC[C@@H](O)C1=CC(=O)c2c(O)ccc(O)c2C1=O [SHIKONIN]	Activity [20]: 4.34%; Activity [21]: 17.2%; Activity [22]: 10.7%; Activity [23]: 4.66%; Activity [24]: 8.91%; Activity [25]: 9.96%; Activity [26]: 27.5%; Activity [27]: 22.1%; Activity [28]: 91.3%; Activity [29]: 8.69%
9.56	8.3	6.73	8.31	84.5	COC(=O)[C@H](CS[C@H](CC=C(C)C)C1=CC(=O)c2c(O)ccc(O)c2C1=O)NC(=O)CCCC[C@@H]1CCSC(c2ccccc2Cl)S1 (some centres not stated)	–
2.34	2.71	2.81	6.44	86.2	COC(=O)[C@H](CS[C@H](CC=C(C)C)C1=CC(=O)c2c(O)ccc(O)c2C1=O)NC(=O)CCCC[C@@H]1CCSC(c2ccc(OC)cc2)S1 (some centres not stated)	–
–	–	–	–	–	COc1cc2ncnc(Nc3ccc(F)c(Cl)c3)c2cc1OCCCN1CCOCC1 [GEFITINIB]	Activity [30]: 89%; Activity [31]: 1.45%; Activity [32]: 0%
18.3	13.3	11.6	11.5	86.1	COC(=O)[C@H](CS[C@H](CC=C(C)C)C1=CC(=O)c2c(O)ccc(O)c2C1=O)NC(=O)CCCC[C@@H]1CCSC(C2CCCCC2)S1 (some centres not stated)	–
13.3	15.7	24.8	19.3	88.7	COC(=O)[C@H](CS[C@H](CC=C(C)C)C1=CC(=O)c2c(O)ccc(O)c2C1=O)NC(=O)CCCC[C@@H]1CCSC(c2ccc(OCc3ccccc3)cc2)S1 (some centres not stated)	–
